Assay [1] concerns the target T1, APE1 (Homo sapiens, UniProt P27695). The assay is described as follows: Far UV circular dichroism of APE1 with drug (CDSSTR/DICHROWEB). Set-up: the full length APE1 protein was successfully expressed and purified; made in house; host or cells: E. coli BL21/DE3; Helix 1 / Helix 2 / Strand 1 / Strand 2 / Turns / Unordered: unit not given here. Particulars: APE1 plus drug (1 mg/ml, 50 µl), 37°C, 60 min. On the procedure: APE1 and its mutant proteins (10 mg/ml), 50 µl (500 µg) (14 µM) in APE1 buffer (50 mM HEPES, pH 7.4, 150 mM KCl, 5 mM MgCl2), were mixed with lucanthone/hycanthone (1 mg/ml), 50 µl (50 µg), 140 µM and incubated at 37°C for 60 min and far UV-CD spectra were recorded at NSLS U11 beam line at BNL. Lucanthone and hycanthone were also scanned as drug controls. The scanning parameters used were a 0.001 cm path length quartz cell, scanning wavelengths from 260 to 170 nm, bandwidth of 0.5 nm, digital integration time of 1 s, time constant of 200 ms, step size of 1 nm, and sensitivity of 200 µV. The data were corrected with blank subtraction from APE1 buffer alone. The secondary structure for APE1 with or without lucanthone or hycanthone was analyzed using CDSSTR program DICHROWEB [38].
(In general: CD spectra are sensitive to the conformation of chiral molecules.)

The target of assay [2] is T1, APE1. The assay is described as follows: Direct binding by surface plasmon resonance (BIACORE 2000), APE1 immobilized on CM5 chip. Details: the full length APE1 protein was successfully expressed and purified; made in house; host or cells: E. coli BL21/DE3. Conditions: for kd: full length APE1; for kon: pH 7.4, read-out: ka. Here is the method:
APE1 (and its hydrophobic mutants) and lucanthone/hycanthone reaction stoichiometry was studied using surface plasmon resonance on a BIACORE 2000 apparatus (Biacore, GE Healthcare, Sweden) at the protein core facility in SUNYSB, to determine the affinity of the two drugs for APE1 (or NΔ40 APE1). APE1 and its mutants (10 µg) (RUmax values were 9000 RU units after immobilization) were immobilized on a CM5 chip by amine coupling (as per the manufacturer's instructions) and binding experiments were performed at 20°C in 10 mM HBS-EP buffer, pH 7.4. Lucanthone (or hycanthone) (20–700 µM) was injected as analyte over the sensor chip in HBS-EP buffer at 10 µl/min. The regeneration was achieved by 10 mM glycine-HCl, pH 3.0 between each analyte (drug) concentration.

The target in assay [3] is T1, APE1. The experiment in a line: MALDI-TOF analysis of APE1 degradation. Details: the full length APE1 protein was successfully expressed and purified; made in house; host or cells: E. coli BL21/DE3. Conditions: 100 µM drug; for APE1 protein fragments by MALDI-TOF / Full length 35.5 kDa APE1 peak by MALDI-TOF: 37°C; for APE1 protein fragments by MALDI-TOF: 2 or 24 h; for Full length 35.5 kDa APE1 peak by MALDI-TOF: 24 h. On the procedure: 100 nM of APE1 protein was treated with 100 µM of lucanthone, hycanthone or CRT at 37°C for 2 h and 24 h and analyzed on sinipinic acid matrix on a Voyager-DE STR (Applied Biosystems) MALDI-TOF instrument at the Proteomics facility at SUNYSB in a linear mode.

Assay [4] has as its target T2, human Nth (Homo sapiens, UniProt P78549).
T2 sequence (P78549 23-304): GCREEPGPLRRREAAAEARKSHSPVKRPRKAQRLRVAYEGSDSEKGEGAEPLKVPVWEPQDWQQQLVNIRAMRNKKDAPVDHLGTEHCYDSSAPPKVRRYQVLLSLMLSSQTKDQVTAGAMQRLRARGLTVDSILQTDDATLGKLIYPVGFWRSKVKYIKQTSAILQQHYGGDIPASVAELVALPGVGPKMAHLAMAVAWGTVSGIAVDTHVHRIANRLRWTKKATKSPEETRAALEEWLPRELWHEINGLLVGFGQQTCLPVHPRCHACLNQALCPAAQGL
The experiment in a line: Circular dichroism of human Nth with lucanthone. Particulars: 140 µM lucanthone, 37°C, 60 min.

Like-named read-outs stand apart in the source and are kept apart here.

T1 sequence (P27695 whole entry): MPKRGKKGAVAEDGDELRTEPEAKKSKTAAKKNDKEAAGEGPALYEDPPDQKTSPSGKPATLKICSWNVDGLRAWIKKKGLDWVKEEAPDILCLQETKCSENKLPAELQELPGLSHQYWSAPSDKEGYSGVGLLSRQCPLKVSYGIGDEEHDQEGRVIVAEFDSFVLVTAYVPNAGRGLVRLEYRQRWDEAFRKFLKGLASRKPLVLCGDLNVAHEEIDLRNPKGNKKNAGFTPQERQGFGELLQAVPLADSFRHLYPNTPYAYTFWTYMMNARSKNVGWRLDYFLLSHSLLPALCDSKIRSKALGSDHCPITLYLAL

As to `CCN(CC)CCNc1ccc(C)c2sc3ccccc3c(=O)c12` [lucanthone, 1-[2-diethylaminoethylamino]-4-methylthioxanthen-9-one], in assay [1], the “Av. helix length per segment” value is recorded as 4.053, the “Av. strand length per segment” value turned out to be 5.762, the “Helix 1” value is listed as 0.00 and the “Helix 2” value turned out to be 0.071. Moreover, in assay [1], the “Strand 1” value was found to be 0.262, the “Strand 2” value was 0.140, the Turns came to 0.125 and the Unordered is given as 0.403. Further, in assay [2], the “APE1:drug stoichiometry” value was “may have been lower”; the affinity, expressed as Kd, was 89 nM; the RUmax stood at 91 RU; the kd came to 7.76e-05 s⁻¹. For the same compound, the kon in assay [2] was found to be 878 M⁻¹ s⁻¹. In addition, in assay [2] (Conc 20 µM), the RUligand was −82 RU. Moreover, in assay [2] (Conc 40 µM), the RUligand is −26 RU. Besides, the RUligand in assay [2] (Conc 80 µM) turned out to be 2.5 RU. In assay [2] (Conc 160 µM), this compound registered an RUligand of 77 RU. Moreover, the RUligand in assay [2] (Conc 320 µM) is listed as 94 RU. This compound showed an RUligand in assay [2] (Conc 640 µM) of 62 RU. Also, in assay [3], the “Time at which APE1 degradation is seen by MALDI” value is reported as not above 2 h, the “APE1 protein fragments by MALDI-TOF” value is “steady degradation of APE1 into smaller fragments” and the “Full length 35.5 kDa APE1 peak by MALDI-TOF” value was “almost completely degraded”. Also, in assay [4], the “Conformational change of human Nth (CD)” value is recorded as “little conformational changes”.
Consider `CCN(CC)CCNc1ccc(CO)c2sc3ccccc3c(=O)c12` [hycanthone], for which, in assay [1], the “Av. helix length per segment” value was found to be 4.020, the “Av. strand length per segment” value came to 5.799, the “Helix 1” value turned out to be 0.00 and the “Helix 2” value was found to be 0.069. Also, in assay [1], the “Strand 1” value amounted to 0.267, the “Strand 2” value is reported as 0.141, the Turns is listed as 0.124 and the Unordered amounted to 0.399. Moreover, in assay [2], the “APE1:drug stoichiometry” value is approximately 1, the RUmax was 90 RU, the kd worked out at 8.9e-07 s⁻¹ and the kon came to 90 M⁻¹ s⁻¹. Further, in assay [2] (BIACORE, 20°C, HBS-EP pH 7.4, read-out: KD (affinity constant)), the Kd stood at 10 nM. Besides, in assay [2] (Conc 22 µM), the RUligand is listed as 24 RU. The RUligand in assay [2] (Conc 44 µM) is recorded as 45 RU. The RUligand in assay [2] (Conc 88 µM) came out at 78 RU. In assay [2] (Conc 176 µM), the RUligand was determined as 79 RU. In assay [2] (Conc 352 µM), the RUligand is recorded as 90 RU. For the same compound, the RUligand in assay [2] (Conc 704 µM) was 118 RU. For the same compound, in assay [2] (hycanthone vs lucanthone), the “Ka, fold higher than lucanthone” value is on record as “about 8 fold” and the “kd of full length APE1, fold lower than for lucanthone” value is approximately 100 fold. Further, in assay [3], the “APE1 protein fragments by MALDI-TOF” value was “cleavage of APE1 as evidenced mainly by 10, 11 and 17 kDa peaks”; the “Full length 35.5 kDa APE1 peak by MALDI-TOF” value is on record as “almost completely degraded”.

By Kd is commonly meant the constant that tells how readily two partners part at equilibrium.
